Experiment [1] has as its system Na^+ currents in DRG cells. The experiment can be described thus: Voltage clamp, inward Na+ currents in DRG cells. The format is cell-based, rat. The protocol: Experiments were performed on adult female Sprague Dawley rats. First and second series of the experiments were performed, respectively, in unidentified DRG neurons and a specific population of DRG neurons innervating the urinary bladder. The population of DRG neurons that innervate the urinary bladder were labeled by retrograde axonal transport of the fluorescent dye, Fast Blue (4% w/v) (Polyloy, Gross Umstadt, Germany), injected into the wall of the bladder in halothane-anesthetized animals 7 days before the dissociation. The dye was injected with a 28 gauge needle at three to six sites on the dorsal surface of the organ (5–6 μL per site, total volume of 20–30 μL). Each injection site was washed with saline to minimize contamination of adjacent organs with the dye.
Freshly dissociated neurons from DRG were prepared from halothane-anesthetized animals. L6 and S1 DRG were dissected from animals and then dissociated in a shaking bath for 25 minutes at 35° C. with 5 mL DMEM (Sigma) containing 0.3 mg/mL trypsin (Type 3, Sigma), 1 mg/mL collagenase (Type 1, Sigma), and 0.1 mg/mL deoxyribonuclease (Type 4, Sigma). Trypsin inhibitor (Type 2a, Sigma) was then added thereto to neutralize the activity of trypsin. Individual DRG cell bodies were isolated by trituration and then plated on a poly-L-lysine-coated 35 mm Petri dishes.
Dye-labeled primary afferent neurons that innervate the urinary bladder were identified using an inverted phase-contrast microscope (Nikon, Tokyo, Japan) with fluorescent attachments (UV-1A filter; excitation wavelength, 365 nm). Gigaohm-seal whole-cell recordings were performed at room temperature (20–22° C.) on each labeled neuron in a culture dish that usually contained three to seven labeled cells among a few hundred unlabeled neurons. The internal solution contained (in mmol/L): KCl 140, CaCl2 1, MgCl2 2, EGTA 11, HEPES 10, Mg-ATP 2, and Tris-GTP 0.4 adjusted to pH 7.4 with KOH. Patch electrodes had resistances of 1–4 M Ω when filled with the internal solution. Neurons were superfused at a flow rate of 1.5 mL/minutes with an external solution containing (in mmol/L): NaCl 150, KCl 5, CaCl2 2.5, MgCl2 1, HEPES 10, and D-glucose 10, adjusted to pH 7.4 with NaOH. All recordings were made with an Axopatch-1D patch-clamp amplifier (Axon Instruments, Foster City, Calif.), and data were acquired and analyzed by PCLAMP software (Axon Instruments).
Inward Na^+ currents were evoked by voltage steps to +60 mV, 800 ms long from a holding potentials of −90 mV. Currents were measured at the maximum (peak) and normalized to control (before addition of the compound).

In experiment [2] the test system is rats with partial urethra obstruction. The experiment can be described thus: Bladder capacity in rats with partial outlet obstruction (cystometry). The class given is in vivo, rat. The conditions noted are these: oral. Here is the method: The test was carried out in accordance with the method of Saito et al. (J. Urol., 150: 1145–1151 (1993)). Male SD rats of 8 to 9 weeks of age (supplied by Japan SLC) were used in the test. Five to seven animals of these rats were put in each metal cage and reared by allowing them to freely take commercially available chow and water, in a rearing room at a room temperature of from 19 to 25° C. and a humidity of from 30 to 70% under illumination for 12 hours (from 7 a.m. to 7 p.m.) per day. Partial urethra obstruction was induced in rats, as a model of urethral obstruction mimicking BPH. Each rat was anesthetized by intraperitoneal administration of 50 mg/kg of pentobarbital sodium (Dainippon Pharmaceutical) and placed in dorsal position. The abdomen was cut in a length of about 1 cm by median incision to expose the bladder, prostate and the urethra. The bladder neck and bladder base were peeled from the prostate, and two surgical sutures (No. 3, Natsume Seisakusho) were passed behind the urethra base. A polyethylene tube (PE-200; Becton Dickinson) was placed along the urethra, and the urethra was mildly double-ligated together with the tube. The ligation was carried out in such a manner that the urethra was not pressed by the polyethylene tube and the sutures were not loosened. The polyethylene tube was pulled out and the urethra was constricted. On the same day of the above surgery, bladder catheter indwelling operation was carried out. The bladder was exposed, and a polyethylene tube (PE-50; Becton Dickinson) was inserted from the bladder top and fixed with a surgical suture. The other end was exposed subcutaneously from the back neck, plugged and then fixed to the skin with the surgical suture. The bladder was returned to the original position and the abdomen was sutured with the surgical suture. Five to seven days after the urethra obstruction and catheter indwelling operations, the rats with partial urethra obstruction and those subjected to sham-operation were put in Ballman cages (KN-326-1, Natsume Seisakusho) under the restricted state, and a three-way cock was connected to the bladder catheter. A pressure transducer (DX-360; Nihon Kohden) was connected to one end of the three-way cock, and the intravesical pressure signal was amplified via a strain pressure amplifier (AP-601G; Nihon Kohden), measured by a polygraph (RPM-6008; Nihon Kohden) and recorded on a thermal array recorder (RTA-1200; Nihon Kohden). A syringe filled with physiological saline (Otsuka Pharmaceutical Industries, Tokushima, Japan) was connected to the other end of the three-way cock and fixed to an infusion pump (KDS 220; Neuroscience). An FD pickup (TB-611T; Nihon Kohden) equipped with a cup was placed on the downside of the Ballman cage and connected to the strain gauge pressure amplifier, and the micturition volume was recorded on the thermal array recorder as the tension change. After the completion of the preparation, physiological saline kept at room temperature was continuously injected into the bladder at a flow rate of 6 mL/h for about 30 minutes, and the animals periodically expressing micturition contraction were used in the test. After they are allowed to stand for 30 to 60 minutes, residual urine was manually expressed by finger pressure. Five minutes thereafter, the injection of physiological saline into the bladder was started again, and the injection was immediately stopped when micturition was observed. The bladder capacity was calculated from the period of time until expression of micturition (injection rate 6 mL/h×injection period). The residual urine volume was calculated by subtracting the micturition volume at the time of bladder contraction (voided volume per micturition) from the bladder capacity. By repeating 30 minutes of bladder injection of physiological saline 2 to 3 times, respective values were measured and used as the test compound or solvent pre-administration values. […]

The mark [3] stands for this setting: before administration (baseline of the Compound 1 group).
Where [4] appears, read: rats with partial urethra obstruction.

Consider `C[C@](O)(C(=O)Nc1cccc2c1C(=O)c1sccc1CS2(=O)=O)C(F)(F)F` [Compound 1, (S)-(+)-N-(5,5-dioxido-10-oxo-4,10-dihydrothieno[3,2-c][1]benzothiepin-9-yl)-3,3,3-trifluoro-2-hydroxy-2-methylpropanamide], for which the “Na^+ ion currents, normalized to control (before addition)” value in experiment [1] (Compound 1 1.0 × 10^−6 mol/L) is 0.99 ± 0.02; in experiment [1] (Compound 1 5.0 × 10^−4 mol/L), 1.00 ± 0.01; in experiment [1] (Compound 1 5.0 × 10^−5 mol/L), 1.00 ± 0.01; in experiment [1] (Compound 1 5.0 × 10^−6 mol/L), 1.00 ± 0.00; in experiment [1] (Compound 1 5.0 × 10^−7 mol/L), 0.99 ± 0.01; in experiment [1] (Compound 1 5.0 × 10^−8 mol/L), 0.99 ± 0.01. Further, the “Influence upon Na^+ currents (in words)” value in experiment [1] (DRG cells) is on record as “does not exert influence upon Na^+ currents”. Moreover, the Bladder capacity in experiment [2] (1 h after administration) came out at 0.54 ± 0.08 mL; in experiment [2] (2 h after administration) it was 0.46 ± 0.07 mL; in experiment [2] (3 h after administration), 0.44 ± 0.07 mL; in experiment [2] (setting [3]) it was 0.40 ± 0.04 mL. For the same molecule, the Residual urine volume in experiment [2] (1 h after administration) is on record as 0.18 ± 0.07 mL; in experiment [2] (2 h after administration), 0.10 ± 0.05 mL; in experiment [2] (3 h after administration), 0.18 ± 0.07 mL; in experiment [2] (setting [3]), 0.15 ± 0.02 mL. Moreover, the micturition volume in experiment [2] (1 h after administration) turned out to be 0.36 ± 0.07 mL; in experiment [2] (2 h after administration) it was 0.36 ± 0.07 mL; in experiment [2] (3 h after administration) it was 0.27 ± 0.01 mL; in experiment [2] (setting [3]) it was 0.25 ± 0.04 mL. Further, in experiment [2] (setting [4]), the “Effect on bladder capacity (in words)” value is “tended to increase bladder capacity”. Further, the “Effect on micturition volume (in words)” value in experiment [2] (setting [4]) was “significantly increased micturition volume”.

For the origin of these results see US7122173B2, “Agent for the treatment of bladder irritative symptoms accompanied by benign prostatic hyperplasia” (Kyowa Hakko Kogyo Co., Ltd., priority 2001, dated 2006).
